Data reported in ChEMBL document CHEMBL3603750, “Synthesis and biological evaluation of 9-N-oxamyl sialosides as Siglec-7 ligands” (Bioorg Med Chem, 2015).

target: T1, Sialic acid-binding Ig-like lectin 7 (Homo sapiens, UniProt Q9Y286); assay: Potency index, ratio of IC50 for compound-1 to IC50 for test compound for binding affinity to human IgG1-fused human Siglec-7-FC (Gln19 to Gly357 residues) assessed as inhibition Siglec-7-Fc binding to RBC pre-incubated for 10 mins before 20 mins incubation with RBCs by flow cytometry
T1 sequence (Q9Y286 whole entry, the tested form may be a part): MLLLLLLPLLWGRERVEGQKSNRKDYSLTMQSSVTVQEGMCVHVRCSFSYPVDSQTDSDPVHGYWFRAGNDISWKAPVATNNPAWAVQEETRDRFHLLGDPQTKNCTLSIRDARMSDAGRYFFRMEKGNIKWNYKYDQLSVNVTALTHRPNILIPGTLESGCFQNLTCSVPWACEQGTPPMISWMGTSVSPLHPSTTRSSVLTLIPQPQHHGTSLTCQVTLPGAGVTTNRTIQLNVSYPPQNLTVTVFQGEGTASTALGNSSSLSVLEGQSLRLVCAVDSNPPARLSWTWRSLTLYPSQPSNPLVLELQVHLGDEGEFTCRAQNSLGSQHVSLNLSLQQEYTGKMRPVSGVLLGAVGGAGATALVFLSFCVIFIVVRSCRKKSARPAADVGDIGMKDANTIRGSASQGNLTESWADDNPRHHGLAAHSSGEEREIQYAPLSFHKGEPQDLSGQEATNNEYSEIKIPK

Question: Which Ratio IC50 does the source give for `CO[C@]1(C(=O)O)C[C@H](O)[C@@H](NC(C)=O)[C@H]([C@H](O)[C@H](O)CNC(=O)C(N)=O)O1` here?
Answer: 4.1

Question: `CO[C@]1(C(=O)O)C[C@H](O)[C@@H](NC(C)=O)[C@H]([C@H](O)[C@H](O)CNC(=O)C(=O)NC(C)C)O1` was tested. Which Ratio IC50 did it give?
Answer: < 2

Question: How did the Ratio IC50 turn out when `CO[C@]1(C(=O)O)C[C@H](O)[C@@H](NC(C)=O)[C@H]([C@H](O)[C@H](O)CNC(=O)C(=O)Nc2ccccc2)O1` was run?
Answer: 58

Question: Which Ratio IC50 does the source give for `CO[C@]1(C(=O)O)C[C@H](O)[C@@H](NC(C)=O)[C@H]([C@H](O)[C@H](O)CO)O1` here?
Answer: 1

Question: For `CCC(C)NC(=O)C(=O)NC[C@@H](O)[C@@H](O)[C@@H]1O[C@@](OC)(C(=O)O)C[C@H](O)[C@H]1NC(C)=O` (mixture of isomers), which Ratio IC50 is on record?
Answer: < 2

Question: `CO[C@]1(C(=O)O)C[C@H](O)[C@@H](NC(C)=O)[C@H]([C@H](O)[C@H](O)CNC(=O)C(=O)NCc2ccc(-c3ccccc3)cc2)O1` was tested. Which Ratio IC50 did it give?
Answer: 8

Question: For `CO[C@]1(C(=O)O)C[C@H](O)[C@@H](NC(C)=O)[C@H]([C@H](O)[C@H](O)CNC(=O)C(=O)NCc2ccccc2)O1`, which Ratio IC50 is on record?
Answer: 8

Question: For `CCNC(=O)C(=O)NC[C@@H](O)[C@@H](O)[C@@H]1O[C@@](OC)(C(=O)O)C[C@H](O)[C@H]1NC(C)=O`, which Ratio IC50 is on record?
Answer: < 2

Question: Which Ratio IC50 does the source give for `CNC(=O)C(=O)NC[C@@H](O)[C@@H](O)[C@@H]1O[C@@](OC)(C(=O)O)C[C@H](O)[C@H]1NC(C)=O` here?
Answer: < 2

Question: With `CO[C@]1(C(=O)O)C[C@H](O)[C@@H](NC(C)=O)[C@H]([C@H](O)[C@H](O)CNC(=O)C(=O)NC(C)(C)C)O1` as the compound, how does the Ratio IC50 read?
Answer: < 2

target: T1, Sialic acid-binding Ig-like lectin 7; assay: Binding affinity to human IgG1-fused human Siglec-7-FC (Gln19 to Gly357 residues) assessed as inhibition Siglec-7-Fc binding to RBC pre-incubated for 10 mins before 20 mins incubation with RBCs by flow cytometry

Question: Which IC50 does the source give for `CO[C@]1(C(=O)O)C[C@H](O)[C@@H](NC(C)=O)[C@H]([C@H](O)[C@H](O)CNC(=O)C(N)=O)O1` here?
Answer: 1.64 mM

Question: How did the IC50 turn out when `CO[C@]1(C(=O)O)C[C@H](O)[C@@H](NC(C)=O)[C@H]([C@H](O)[C@H](O)CO)O1` was run?
Answer: 8.07 mM
